“And” between values parts separate entries of the source, which are not always exact repeats. Equal entries are not always repeated. The source made the active and inactive calls. No cut-off for these calls is given here.
How the values were obtained:
Legionella pneumophila [1] = test: Inhibition of Legionella pneumophila recombinant PAH assessed as residual activity by […] assay using 1 mM L-Phe as substrate and 200 uM BH4 as cofactor
[2] = Non-competitive inhibition of Legionella pneumophila recombinant PAH for free enzyme by […] assay using BH4 as cofactor
[3] = Non-competitive inhibition of Legionella pneumophila recombinant PAH for enzyme-substrate complex by […] assay using BH4 as cofactor
[4] = Mixed inhibition of Legionella pneumophila recombinant PAH for free enzyme by […] assay using L-Phe as substrate
[5] = Mixed inhibition of Legionella pneumophila recombinant PAH for enzyme-substrate complex by […] assay method using L-Phe as substrate
Legionella pneumophila [6] = test: Antibacterial activity against Legionella pneumophila 130b assessed as bacterial growth at 40 uM after 24 hrs by spectrometer; type: functional, organism-based
Legionella pneumophila [7] = test: Antibacterial activity against Legionella pneumophila 130b assessed as bacterial growth at <= 10 uM after 24 hrs by spectrometer; type: functional, organism-based
Legionella pneumophila [8] = test: Antibacterial activity against Legionella pneumophila 130b assessed as bacterial growth at 20 uM after 24 hrs by spectrometer; type: functional, organism-based
Legionella pneumophila [9] = test: Inhibition of PAH in Legionella pneumophila 130b lysate assessed as residual activity at 10 uM by direct detect spectrometer
Escherichia coli [10] = test: Antibacterial activity against Escherichia coli XL-10 Gold at <= 100 uM after 21 hrs; type: functional, organism-based
Escherichia coli [11] = test: Antibacterial activity against Escherichia coli XL-10 Gold assessed as slower growth rate at > 40 uM after 21 hrs; type: functional, organism-based
[12] = biological target: T1, Phenylalanine-4-hydroxylase (Homo sapiens) (UniProt P00439); test: Inhibition of human PAH by […] assay using L-Phe as substrate and 75 uM BH4 as cofactor
T1 sequence (whole entry): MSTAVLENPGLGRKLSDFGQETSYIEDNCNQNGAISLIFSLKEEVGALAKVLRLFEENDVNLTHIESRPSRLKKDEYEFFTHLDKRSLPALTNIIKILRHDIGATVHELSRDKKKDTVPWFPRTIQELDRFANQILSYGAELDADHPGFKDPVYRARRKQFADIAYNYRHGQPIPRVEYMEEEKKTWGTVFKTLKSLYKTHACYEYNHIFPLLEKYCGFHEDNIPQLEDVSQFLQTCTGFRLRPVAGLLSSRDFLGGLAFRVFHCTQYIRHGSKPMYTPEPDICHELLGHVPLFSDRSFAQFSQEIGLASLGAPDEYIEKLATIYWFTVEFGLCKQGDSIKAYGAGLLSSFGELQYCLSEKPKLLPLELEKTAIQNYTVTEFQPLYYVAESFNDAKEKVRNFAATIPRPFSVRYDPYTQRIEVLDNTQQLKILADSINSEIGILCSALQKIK

[13] = Binding affinity to Legionella pneumophila recombinant PAH by DSF assay
[14] = Uncompetitive inhibition of Legionella pneumophila recombinant PAH for free enzyme by […] assay using L-Phe as substrate
[15] = Uncompetitive inhibition of Legionella pneumophila recombinant PAH for enzyme-substrate complex by […] assay using L-Phe as substrate
Legionella pneumophila [16] = test: Antibacterial activity against Legionella pneumophila 130b assessed as bacterial growth at 0.1 to 40 uM after 24 hrs by spectrometer; type: functional, organism-based

**Q.** For `CN1CCN(c2cc(-c3ccccn3)nc3ccccc23)CC1`, which Activity (Legionella pneumophila [1]) is on record?
**A.** 2.6%

**Q.** Which Activity (Legionella pneumophila [1]) does the source give for `O=c1cc(CO)oc(C(Nc2nccs2)c2ccc(F)cc2)c1O` (configuration not stated) here?
**A.** 0.1%

**Q.** Which Activity (Legionella pneumophila [1]) does the source give for `c1ccc2c(c1)CSc1sccc1C2n1ccnc1` (configuration not stated) here?
**A.** 0.38%

**Q.** And the Ki [2]?
**A.** 2000 nM

**Q.** And the Ki [3]?
**A.** 1700 nM

**Q.** And the Ki [4]?
**A.** 2200 nM

**Q.** What about the Ki [5] of the same compound?
**A.** 4100 nM

**Q.** What about the Activity (Legionella pneumophila [6]) of the same compound?
**A.** Active

**Q.** And the Activity (Legionella pneumophila [7])?
**A.** inactive

**Q.** And the Activity (Legionella pneumophila [8])?
**A.** Active

**Q.** What about the Activity (Legionella pneumophila [9]) of the same compound?
**A.** 36%

**Q.** And the Activity (Escherichia coli [10])?
**A.** inactive

**Q.** And the Activity (Escherichia coli [11])?
**A.** Active

**Q.** And the inhibition [12]?
**A.** Active

**Q.** And the Kd [13]?
**A.** 1100 nM

**Q.** For `CC1(C)CC(=O)C2=C(C1)NC1=C(C(=O)CC(C)(C)C1)C2c1cnc[nH]1`, which Activity (Legionella pneumophila [1]) is on record?
**A.** 3.2%

**Q.** With `O=C(C1=C(O)C(=O)N(Cc2ccco2)C1c1ccc(Oc2ccccc2)cc1)c1cccs1` (configuration not stated) as the compound, how does the Activity (Legionella pneumophila [1]) read?
**A.** 1.53%

**Q.** Which Activity (Legionella pneumophila [1]) does the source give for `Oc1cc(C(F)(F)F)nn1-c1nc2ccccc2s1` here?
**A.** 1.4%

**Q.** With `S=C(NNC(=S)Nc1ccccc1)Nc1ccccc1` as the compound, how does the Activity (Legionella pneumophila [1]) read?
**A.** 1.9%

**Q.** With `O=C(O)c1cc([N+](=O)[O-])cc2c1-c1ccc([N+](=O)[O-])cc1/C2=N/O` as the compound, how does the Activity (Legionella pneumophila [1]) read?
**A.** 0.1%

**Q.** And the Ki [2]?
**A.** 1000 nM

**Q.** What about the Ki [3] of the same compound?
**A.** 1000 nM

**Q.** What about the Ki [14] of the same compound?
**A.** 20000 nM

**Q.** And the Ki [15]?
**A.** 370 nM

**Q.** What about the Activity (Legionella pneumophila [16]) of the same compound?
**A.** Active

**Q.** And the Activity (Legionella pneumophila [9])?
**A.** 39%

**Q.** Which Activity (Legionella pneumophila [1]) does the source give for `Cc1nccn1C1c2ccccc2CSc2sccc21` (configuration not stated) here?
**A.** 2.2%

**Q.** Which Activity (Legionella pneumophila [1]) does the source give for `c1ccc2c(c1)CSc1ccccc1C2n1ccnc1` (configuration not stated) here?
**A.** 1.6%

**Q.** For `c1ccc(-c2cc(N3CCCCC3)c3ccccc3n2)nc1`, which Activity (Legionella pneumophila [1]) is on record?
**A.** 3.1%

**Q.** For `c1ccc(-c2cc(N3CCOCC3)c3ccccc3n2)nc1`, which Activity (Legionella pneumophila [1]) is on record?
**A.** 4.9% and 2.6%

**Q.** For `O=C(C1=C(O)C(=O)N(c2nncs2)C1c1ccc(Cl)cc1)c1cccs1` (configuration not stated), which Activity (Legionella pneumophila [1]) is on record?
**A.** 2.23%

**Q.** With `CC(C)(C)c1ccc(C2C(C(=O)c3cccs3)=C(O)C(=O)N2c2nncs2)cc1` (configuration not stated) as the compound, how does the Activity (Legionella pneumophila [1]) read?
**A.** 4.2%
